The text below walks through data of patent US20120121591A1 (priority 2009, published 2012).

Common to all, as to type: cell-based
The target in one experiment is hKv1.3 (Homo sapiens, UniProt P22001). Nature of the experiment: cell-based. The note with it: Kv1.3 (IWQ) IC50 (nM, Avg).
In experiment [1] the test system is IL-2 secretion from T cells in human whole blood. The note with it: read-out: WB (IL-2) IC50 (nM, Avg).
Experiment [2] relates to IFN-g secretion from T cells in human whole blood. The note with it: read-out: WB (IFNg) IC50 (nM, Avg).

hKv1.3, sequence (P22001 whole entry): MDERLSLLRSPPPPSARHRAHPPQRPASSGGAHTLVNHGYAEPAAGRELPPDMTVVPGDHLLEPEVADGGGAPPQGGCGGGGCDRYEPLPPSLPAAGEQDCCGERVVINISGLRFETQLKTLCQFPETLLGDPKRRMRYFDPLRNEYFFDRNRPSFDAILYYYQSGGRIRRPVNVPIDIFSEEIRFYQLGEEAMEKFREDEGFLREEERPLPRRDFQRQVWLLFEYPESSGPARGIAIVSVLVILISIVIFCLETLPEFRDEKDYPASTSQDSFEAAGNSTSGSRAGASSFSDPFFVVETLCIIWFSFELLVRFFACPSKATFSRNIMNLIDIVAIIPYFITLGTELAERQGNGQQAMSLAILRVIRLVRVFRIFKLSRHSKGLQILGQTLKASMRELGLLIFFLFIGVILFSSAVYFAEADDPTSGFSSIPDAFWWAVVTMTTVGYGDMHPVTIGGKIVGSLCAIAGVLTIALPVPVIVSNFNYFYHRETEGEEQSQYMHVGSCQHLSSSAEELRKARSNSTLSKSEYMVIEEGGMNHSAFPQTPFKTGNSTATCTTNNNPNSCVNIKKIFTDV

By IC50 is commonly meant the point on the concentration scale where inhibition reaches its midpoint. As for `CC[C@H](C)[C@@H]1NC(=O)[C@@H](NC(=O)[C@H](CO)NC(=O)[C@@H](N)CCCNC(=N)N)CSSC[C@@H](C(=O)O)NC(=O)[C@H]([C@@H](C)O)NC(=O)CNC(=O)[C@@H]2CSSC[C@@H]3NC(=O)[C@H](CCC(N)=O)NC(=O)[C@H](Cc4ccccc4)NC(=O)[C@H](C)NC(=O)[C@H]([C@@H](C)O)NC(=O)[C@H](CSSC[C@H](NC(=O)[C@H](Cc4ccccc4)NC(=O)[C@H](CO)NC(=O)[C@H](CC(C)C)NC(=O)[C@H](C)NC(=O)[C@H](Cc4ccc(O)cc4)NC(=O)[C@H](CCCCN)NC(=O)[C@H](CCSC)NC(=O)[C@H](CO)NC(=O)[C@H](Cc4c[nH]cn4)NC(=O)[C@H](CCCCN)NC3=O)C(=O)N[C@@H](CCCNC(=N)N)C(=O)N[C@@H](CCCCN)C(=O)N[C@@H]([C@@H](C)O)C(=O)N2)NC(=O)[C@H](CCCNC(=N)N)NC(=O)[C@H](CO)NC(=O)[C@H](CCCCN)NC(=O)[C@@H]2CCCN2C(=O)[C@H]([C@@H](C)CC)NC(=O)[C@H]([C@@H](C)O)NC(=O)[C@H](CC(=O)O)NC1=O` [[Ala24]ShK], the IC50 against hKv1.3 came to 0.062 nM; in experiment [1], 0.043 nM; in experiment [2], 0.216 nM.
In the case of `CC[C@H](C)[C@@H]1NC(=O)[C@@H](NC(=O)[C@H](CO)NC(=O)[C@@H](N)CCCNC(=N)N)CSSC[C@@H](C(=O)O)NC(=O)[C@H]([C@@H](C)O)NC(=O)CNC(=O)[C@@H]2CSSC[C@@H]3NC(=O)[C@H](CCC(N)=O)NC(=O)[C@H](Cc4ccccc4)NC(=O)[C@H](C)NC(=O)[C@H]([C@@H](C)O)NC(=O)[C@H](CSSC[C@H](NC(=O)[C@H](Cc4ccccc4)NC(=O)[C@H](CO)NC(=O)[C@H](C)NC(=O)[C@H](CCCNC(=N)N)NC(=O)[C@H](Cc4ccc(O)cc4)NC(=O)[C@H](CCCCN)NC(=O)[C@H](CCSC)NC(=O)[C@H](CO)NC(=O)[C@H](Cc4c[nH]cn4)NC(=O)[C@H](CCCCN)NC3=O)C(=O)N[C@@H](CCCNC(=N)N)C(=O)N[C@@H](CCCCN)C(=O)N[C@@H]([C@@H](C)O)C(=O)N2)NC(=O)[C@H](CCCNC(=N)N)NC(=O)[C@H](CO)NC(=O)[C@H](CCCCN)NC(=O)[C@@H]2CCCN2C(=O)[C@H]([C@@H](C)CC)NC(=O)[C@H]([C@@H](C)O)NC(=O)[C@H](CC(=O)O)NC1=O` [[Ala25]ShK], the IC50 was found to be 0.116 nM at hKv1.3, 0.195 nM in experiment [1] and 0.408 nM in experiment [2].
As for `CC[C@H](C)[C@@H]1NC(=O)[C@@H](NC(=O)[C@H](CO)NC(=O)[C@@H](N)CCCNC(=N)N)CSSC[C@@H](C(=O)O)NC(=O)[C@H]([C@@H](C)O)NC(=O)CNC(=O)[C@@H]2CSSC[C@@H]3NC(=O)[C@H](CCC(N)=O)NC(=O)[C@H](Cc4ccccc4)NC(=O)[C@H](C)NC(=O)[C@H]([C@@H](C)O)NC(=O)[C@H](CSSC[C@H](NC(=O)[C@H](C)NC(=O)[C@H](CO)NC(=O)[C@H](CC(C)C)NC(=O)[C@H](CCCNC(=N)N)NC(=O)[C@H](Cc4ccc(O)cc4)NC(=O)[C@H](CCCCN)NC(=O)[C@H](CCSC)NC(=O)[C@H](CO)NC(=O)[C@H](Cc4c[nH]cn4)NC(=O)[C@H](CCCCN)NC3=O)C(=O)N[C@@H](CCCNC(=N)N)C(=O)N[C@@H](CCCCN)C(=O)N[C@@H]([C@@H](C)O)C(=O)N2)NC(=O)[C@H](CCCNC(=N)N)NC(=O)[C@H](CO)NC(=O)[C@H](CCCCN)NC(=O)[C@@H]2CCCN2C(=O)[C@H]([C@@H](C)CC)NC(=O)[C@H]([C@@H](C)O)NC(=O)[C@H](CC(=O)O)NC1=O` [[Ala27]ShK], the IC50 at hKv1.3 stood at 0.207 nM; in experiment [1] it was 1.57 nM; in experiment [2] it was 8.78 nM.
`CC[C@H](C)[C@@H]1NC(=O)[C@@H](NC(=O)[C@H](CO)NC(=O)[C@@H](N)CCCNC(=N)N)CSSC[C@@H](C(=O)O)NC(=O)[C@H]([C@@H](C)O)NC(=O)CNC(=O)[C@@H]2CSSC[C@@H]3NC(=O)[C@H](CCC(N)=O)NC(=O)[C@H](Cc4ccccc4)NC(=O)[C@H](C)NC(=O)[C@H]([C@@H](C)O)NC(=O)[C@H](CSSC[C@H](NC(=O)[C@H](Cc4ccccc4)NC(=O)[C@H](CO)NC(=O)[C@H](CC(C)C)NC(=O)[C@H](CCCNC(=N)N)NC(=O)[C@H](Cc4ccc(O)cc4)NC(=O)[C@H](CCCCN)NC(=O)[C@H](CCSC)NC(=O)[C@H](CO)NC(=O)[C@H](Cc4c[nH]cn4)NC(=O)[C@H](CCCCN)NC3=O)C(=O)N[C@@H](CCCNC(=N)N)C(=O)N[C@@H](C)C(=O)N[C@@H]([C@@H](C)O)C(=O)N2)NC(=O)[C@H](CCCNC(=N)N)NC(=O)[C@H](CO)NC(=O)[C@H](CCCCN)NC(=O)[C@@H]2CCCN2C(=O)[C@H]([C@@H](C)CC)NC(=O)[C@H]([C@@H](C)O)NC(=O)[C@H](CC(=O)O)NC1=O` [[Ala30]ShK]: the IC50 against hKv1.3 was found to be 0.178 nM; in experiment [1], 0.258 nM; in experiment [2], 0.394 nM.
For the compound `CC[C@H](C)[C@@H]1NC(=O)[C@@H](NC(=O)[C@H](CO)NC(=O)[C@@H](N)CCCNC(=N)N)CSSC[C@@H](C(=O)O)NC(=O)[C@H]([C@@H](C)O)NC(=O)[C@H](C)NC(=O)[C@@H]2CSSC[C@@H]3NC(=O)[C@H](CCC(N)=O)NC(=O)[C@H](Cc4ccccc4)NC(=O)[C@H](C)NC(=O)[C@H]([C@@H](C)O)NC(=O)[C@H](CSSC[C@H](NC(=O)[C@H](Cc4ccccc4)NC(=O)[C@H](CO)NC(=O)[C@H](CC(C)C)NC(=O)[C@H](CCCNC(=N)N)NC(=O)[C@H](Cc4ccc(O)cc4)NC(=O)[C@H](CCCCN)NC(=O)[C@H](CCSC)NC(=O)[C@H](CO)NC(=O)[C@H](Cc4c[nH]cn4)NC(=O)[C@H](CCCCN)NC3=O)C(=O)N[C@@H](CCCNC(=N)N)C(=O)N[C@@H](CCCCN)C(=O)N[C@@H]([C@@H](C)O)C(=O)N2)NC(=O)[C@H](CCCNC(=N)N)NC(=O)[C@H](CO)NC(=O)[C@H](CCCCN)NC(=O)[C@@H]2CCCN2C(=O)[C@H]([C@@H](C)CC)NC(=O)[C@H]([C@@H](C)O)NC(=O)[C@H](CC(=O)O)NC1=O` [[Ala33]ShK], the IC50 on hKv1.3 came out at 0.075 nM; in experiment [1], 0.049 nM; in experiment [2] it was 0.1 nM.
As for `CC[C@H](C)[C@@H]1NC(=O)[C@@H](NC(=O)[C@H](CO)NC(=O)[C@@H](N)CCCNC(=N)N)CSSC[C@@H](C(=O)O)NC(=O)[C@H](C)NC(=O)CNC(=O)[C@@H]2CSSC[C@@H]3NC(=O)[C@H](CCC(N)=O)NC(=O)[C@H](Cc4ccccc4)NC(=O)[C@H](C)NC(=O)[C@H]([C@@H](C)O)NC(=O)[C@H](CSSC[C@H](NC(=O)[C@H](Cc4ccccc4)NC(=O)[C@H](CO)NC(=O)[C@H](CC(C)C)NC(=O)[C@H](CCCNC(=N)N)NC(=O)[C@H](Cc4ccc(O)cc4)NC(=O)[C@H](CCCCN)NC(=O)[C@H](CCSC)NC(=O)[C@H](CO)NC(=O)[C@H](Cc4c[nH]cn4)NC(=O)[C@H](CCCCN)NC3=O)C(=O)N[C@@H](CCCNC(=N)N)C(=O)N[C@@H](CCCCN)C(=O)N[C@@H]([C@@H](C)O)C(=O)N2)NC(=O)[C@H](CCCNC(=N)N)NC(=O)[C@H](CO)NC(=O)[C@H](CCCCN)NC(=O)[C@@H]2CCCN2C(=O)[C@H]([C@@H](C)CC)NC(=O)[C@H]([C@@H](C)O)NC(=O)[C@H](CC(=O)O)NC1=O` [[Ala34]ShK], the results for the IC50 (at hKv1.3; in experiment [1]; in experiment [2]) were 0.123 nM, 0.063 nM and 0.075 nM, respectively.
Take `CC[C@H](C)[C@@H]1NC(=O)[C@@H](NC(=O)[C@H](CCCNC(=N)N)NC(=O)[C@@H](N)CCCNC(=N)N)CSSC[C@@H](C(=O)O)NC(=O)[C@H]([C@@H](C)O)NC(=O)CNC(=O)[C@@H]2CSSC[C@@H]3NC(=O)[C@H](CCC(N)=O)NC(=O)[C@H](Cc4ccccc4)NC(=O)[C@H](C)NC(=O)[C@H]([C@@H](C)O)NC(=O)[C@H](CSSC[C@H](NC(=O)[C@H](Cc4ccccc4)NC(=O)[C@H](CO)NC(=O)[C@H](CC(C)C)NC(=O)[C@H](CCCNC(=N)N)NC(=O)[C@H](Cc4ccc(O)cc4)NC(=O)[C@H](CCCCN)NC(=O)[C@H](CCSC)NC(=O)[C@H](CO)NC(=O)[C@H](Cc4c[nH]cn4)NC(=O)[C@H](CCCCN)NC3=O)C(=O)N[C@@H](CCCNC(=N)N)C(=O)N[C@@H](CCCCN)C(=O)N[C@@H]([C@@H](C)O)C(=O)N2)NC(=O)[C@H](CCCNC(=N)N)NC(=O)[C@H](CO)NC(=O)[C@H](CCCCN)NC(=O)[C@@H]2CCCN2C(=O)[C@H]([C@@H](C)CC)NC(=O)[C@H]([C@@H](C)O)NC(=O)[C@H](CC(=O)O)NC1=O` [[Arg2]ShK]: the figures for the IC50 (against hKv1.3; in experiment [1]; in experiment [2]) were 0.074 nM, 0.097 nM and 0.087 nM, respectively.
Turning to `CC[C@H](C)[C@@H]1NC(=O)[C@@H](NC(=O)[C@H](CO)NC(=O)[C@@H](N)CCCNC(=N)N)CSSC[C@@H](C(=O)O)NC(=O)[C@H]([C@@H](C)O)NC(=O)CNC(=O)[C@@H]2CSSC[C@@H]3NC(=O)[C@H](CCC(N)=O)NC(=O)[C@H](Cc4ccccc4)NC(=O)[C@H](C)NC(=O)[C@H]([C@@H](C)O)NC(=O)[C@H](CSSC[C@H](NC(=O)[C@H](Cc4ccccc4)NC(=O)[C@H](CO)NC(=O)[C@H](CC(C)C)NC(=O)[C@H](CCCNC(=N)N)NC(=O)[C@H](Cc4ccc(O)cc4)NC(=O)[C@H](CCCCN)NC(=O)[C@H](CCSC)NC(=O)[C@H](CO)NC(=O)[C@H](Cc4c[nH]cn4)NC(=O)[C@H](CCCCN)NC3=O)C(=O)N[C@@H](CCCNC(=N)N)C(=O)N[C@@H](CCCCN)C(=O)N[C@@H]([C@@H](C)O)C(=O)N2)NC(=O)[C@H](CCCNC(=N)N)NC(=O)[C@H](CO)NC(=O)[C@H](CCCCN)NC(=O)[C@@H]2CCCN2C(=O)[C@H]([C@@H](C)CC)NC(=O)[C@H]([C@@H](C)O)NC(=O)[C@H](CCCNC(=N)N)NC1=O` [[Arg5]ShK], the IC50 turned out to be 3.3 nM against hKv1.3, 47.3 nM in experiment [1] and 91.7 nM in experiment [2].
